Measured values published in patent US11766068B1, “Method of treating smokeless tobacco” (Altria Client Services LLC, priority 2009, dated 2023).

What was measured:
HOK-16B cells [1] = experiment: Morphologic assessment of necrotic/apoptotic cell death (Hema 3 staining); type: cell-based, human; conditions: for protection from STE-induced cell death: TROLOX 20 µmol/L, L-ascorbic acid 50 µmol/L or deferoxamine 50 µmol/L, 30 min prior to STE, FIG. 1D
Procedure: (§1) Extracts of smokeless tobacco were prepared in cell growth medium as follows. One gram of reference smokeless tobacco was mixed with 10 ml of cell growth medium and placed on a shaker at 300 rpm and allowed to mix for 2 hours at 37° C. It was then centrifuged at 125 g for 10 minites at 4° C. The extracted supernatant was collected and centrifuged at 14,000 g for 1 hour at 4° C. The supernatant was filtered using a 0.22 µm filter, divided into aliquots, and immediately stored at -80° C. The extracted supernatant yielded a 100 mg/ml smokeless tobacco extract (STE) solution, which was serially diluted to obtain the doses of STE (1-100 mg/ml) used.
The primary HOK cells, isolated from human oral mucosa, were plated on poly-L-lysine coated plates at a density of 5 × 10^5 cells/well in a 12-well plate and cultured in keratinocyte medium at 37° C. in a humidified atmosphere containing 5% CO2 (v/v). HOK-16B cells were plated at a density of 5 × 10^5 cells/well in a 12-well plate and cultured in keratinocyte growth medium supplemented with 0.1 ng/ml epidermal growth factor, 5 µg/ml insulin, 30 µg/mlgentamicin, and 50 µg/mlamphoterecin at 37° C. in a humidified atmosphere containing 5% CO2 (v/v). The Het-1A cells were attached to plates pre-coated with LHC-9 medium supplemented with 0.01 mg/ml fibronectin, 0.03 mg/ml bovine collagen type I and 0.01 mg/ml bovine serum albumin for 1 hour, at a density of 5 × 10^5 cells/well in a 12-well plate and cultured in LHC-9 medium at 37° C. in a humidified atmosphere containing 5% CO2 (v/v). Unless otherwise indicated, cells were exposed to STE at 24 hours after plating.
Cells were treated with TROLOX (6-hydroxy-2,5,7,8-tetramethylchroman-2-carboxylic acid, a water-soluble derivative of vitamin E) at 20 µmol/L, L-ascorbic acid (50 µmol/L), or deferoxamine (50 µmol/L) 30 min prior to STE addition. Treatment was from a 10 mM stock solution of each agent, and the maximal concentration of vehicle [dimethyl sulfoxide (DMSO)] in culture medium was 0.01% (v/v). When possible, agents were diluted in appropriate cell culture medium (TROLOX, L-ascorbic acid, deferoxamine). Exposure to STE is expressed in terms of the amount of reference MST used to produce the total volume of STE [i.e., 100 mg/ml (w/v)]. The indicated concentrations of STE (1-100 mg/ml) exposure were chosen for these studies because they are within the reference range of previously cited works involving smokeless tobacco exposure (Bagchi et al., “Smokeless tobacco, oxidative stress, apoptosis, and antioxidants in human oral keratinocytes.: Free Radic. Biol. Med. 26, 992-1000 (1999); Mangipudy et al., “Role of nitric oxide in the induction of apoptosis by smokeless tobacco extract.” Mol Cell Biochem. 200, 51-57 (1999); and Petro, “Modulation of IL-12 p35 and p40 promoter activity by smokeless tobacco extract is associated with an effect upon activation of NF-kappaB but not IRF transcription factors.” Int. Immunopharmacol.
Morphologic assessment of viable cells and apoptotic and necrotic cell death was performed as follows. Cells were harvested 3 hours after STE exposure, unless otherwise noted, by treatment with trypsin-EDTA for approximately 5 minutes at 37° C. As some apoptotic cells detached from the culture substratum into the medium, these cells were also collected by centrifugation of the medium at 125 g for 5 minutes. […] Nuclear and total cellular morphology were evaluated. […]

HOK-16B cells [2] = experiment: Intracellular ROS generation (DCFH-DA fluorescence) after STE exposure; type: cell-based, human; conditions: TROLOX 20 µmol/L, L-ascorbic acid 50 µmol/L or deferoxamine 50 µmol/L, 30 min prior to STE addition; FIG. 1C
Procedure: as §1, with “used. […]” for “used.”
The intracellular generation of reactive oxygen species (ROS) was measured by using membrane permeable oxidation-sensitive fluorescent dye DCFH-DA. […] Fluorescence measurements were obtained 0 to 3 hours after STE addition, at the indicated concentrations, with a plate reader. Thirty minutes before the measurement of ROS in the plate reader, cells were incubated with DCFH-DA (25 µmol/L) or DMSO vehicle. The medium was then rapidly removed, the cells were washed in ice-cold phosphate-buffered saline and replaced with medium lacking dye, and the plate was placed into the plate reader. Data at each time point are presented corrected for basal fluorescence of vehicle-treated cells at the same time point. […]

[3] = for chelation of free calcium of MST-extract: 9.5 mM chelator in MST-extract
Procedure: The term “free” with regard to (1) calcium and (2) iron refers to (1) Ca^2+ and (2) Fe^2+ and/or Fe^3+, respectively. Determination of an amount of free iron and/or free calcium in smokeless tobacco can be made by first incubating the smokeless tobacco with any chelators that may be used for an appropriate amount of time (for example, one day), then separating extract by centrifugation with glass beads. […] Then, fifteen grams of Glass Beads (Kimble; 6 MM catalog # 13500-6) can be added to the Vectrospin™ tube containing the tobacco. The tube is preferably centrifuged at 2200 g for 20 minutes to recover tobacco extract. Free calcium and iron can be measured using the respective QuantiChrom™ assay kits (BioAssay Systems, Hayward, CA) according to the manufacturer’s instructions.

Klebsiella pneumoniae = conditions: cited from earlier work
cells = experiment: Cell death during cell wounding by washed MST, platform rocker exposure system; type: cell-based; conditions: for cell death associated with MST-extract exposure during cell wounding: MST-extract containing 9.5 mM chelator, with washed MST, 30 minutes
Procedure: Cell death was measured immediately following treatment.
We then treated cells for 30 minutes with MST-extract/chelator preparations in the presence of washed MST using the platform exposure system and assessed cell death immediately following treatment.

| SMILES | protection from STE-induced cell death (HOK-16B cells [1]) | production of ROS induced by STE (HOK-16B cells [2]) | chelation of free calcium of MST-extract [3] | capsule production of Klebsiella pneumoniae (Klebsiella pneumoniae) | cell death associated with MST-extract exposure during cell wounding (cells) | other results |
| --- | --- | --- | --- | --- | --- | --- |
| O=C1O[C@H]([C@@H](O)CO)C(O)=C1O [L-ascorbic acid] | can protect against cell death | completely suppressed |  |  |  |  |
| Cc1c(C)c2c(c(C)c1O)CCC(C)(C(=O)O)O2 (stereo not drawn) [TROLOX, 6-hydroxy-2,5,7,8-tetramethylchroman-2-carboxylic acid] | can protect against cell death | completely suppressed |  |  |  |  |
| O=C(O)CN(CCOCCOCCN(CC(=O)O)CC(=O)O)CC(=O)O [EGTA, ethylene glycol tetraacetic acid] |  |  | nearly all | reduced capsule production | reduced cell death | free calcium levels in the high Ca2+ medium after chelator addition ([3]; 13.5 mM Ca2+ medium): less than 2 mM; cell death with chelator-treated high Ca2+ medium in combination with washed MST (cells; free calcium reduced to less than 2 mM): significantly reduced degree of cell death |
| [Cl][Fe]([Cl])[Cl] [FeCl3] |  |  |  |  |  | percent necrotic cell death after 3 hours (HOK-16B cells [1]; free iron 14 pM in cell culture medium without STE, 0 pM gave 4.9 ± 0.6%): 13.4 ± 1.0%; percent necrotic cell death after 3 hours (HOK-16B cells [1]; free iron 31 pM in cell culture medium without STE): 26.2 ± 3.5%; percent necrotic cell death after 3 hours (HOK-16B cells [1]; free iron 71 pM in cell culture medium without STE): 37.9 ± 4.5% |
| O=C(O)CN(CCN(CC(=O)O)CC(=O)O)CC(=O)O [EDTA, ethylenediamine tetraacetic acid] |  |  | nearly all | reduced capsule production | reduced cell death |  |
